Here are results for 52 compounds from US20090124636A1, “CHEMICAL COMPOUNDS” (priority 2006, published 2009).

By IC50 is commonly meant the point on the concentration scale where inhibition reaches its midpoint.

This test has as its system HIV-1 fusion. Description: cells. The class given is cell-based. Here is the method: The gp160 induced cell-cell fusion assay uses a HeLa P4 cell line and a CHO-Tat10 cell line.
The HeLa P4 cell line expresses CCR5 and CD4 and has been transfected with HIV-1 LTR-β-Galactosidase. The media for this cell line is Dulbecco modified eagle's medium (D-MEM) (without L-glutamine) containing 10% foetal calf serum (FCS), 2 mM L-glutamine, penicillin/streptomycin (Pen/Strep; 100 U/mL penicillin+[…] streptomycin), and 1 μg/ml puromycin.
The CHO cell line is a Tat (transcriptional trans activator)-expressing clone from a CHO JRR17.1 cell line that has been transfected with pTat puro plasmid. The media for this cell line is rich medium for mammalian cell culture originally developed at Roswell Park Memorial Institute RPMI1640 (without L-glutamine) containing 10% FCS, 2 mM L-glutamine, 0.5 mg/ml Hygromycin B and 12 μg/ml puromycin. The CHO JRR17.1 line expresses gp160 (JRFL) and is a clone that has been selected for its ability to fuse with a CCR5/CD4 expressing cell line.
Upon cell fusion, Tat present in the CHO cell is able to transactivate the HIV-1 long terminal repeat (LTR) present in the HeLa cell leading to the expression of the β-Galactosidase enzyme. This expression is then measured using a Fluor Ace™ β-Galactosidase reporter assay kit (Bio-Rad cat no. 170-3150). This kit is a quantitative fluorescent assay that determines the level of expression of β-galactosidase using 4-methylumbelliferyl-galactopyranoside (MUG) as substrate. β-Galactosidase hydrolyses the fluorogenic substrate resulting in release of the fluorescent molecule 4-methylumbelliferone (4 MU). Fluorescence of 4-methylumbelliferone is then measured on a fluorometer using an excitation wavelength of 360 nm and emission wavelength of 460 nm.

[1] abbreviates: Human immunodeficiency virus 1, HeLaP4.
Where [2] appears, read: HIV cell fusion assay, HeLa P4 (CCR5/CD4) and CHO-Tat10 (gp160 JRFL) cells, read-out: IC50.
Setting [3] is: HIV cell fusion assay, unit μm printed under the cell, read-out: IC50.

Read-outs that look alike come from different tables or passages of the source.

`Cc1cccc(C)c1C(=O)N1CCC(N2CC[C@@H](N(Cc3cccc(Cl)c3)C(=O)C3CC3)C2)CC1` [Example 1, N-(3-chlorobenzyl)-N-{(3R)-1-[1-(2,6-dimethylbenzoyl)piperidin-4-yl]pyrrolidin-3-yl}cyclopropanecarboxamide] gave a half-inhibitory concentration (IC50) under setting [1] of 0.14 nM. As to `Cc1cccc(C)c1C(=O)N1CCC(N2CC[C@@H](N(Cc3ccccc3F)C(=O)C3CC3)C2)CC1` [Example 3], under setting [2], the concentration for half-maximal inhibition (IC50) was 0.2 nM.

Regarding `COCC(=O)N(Cc1ccccc1)[C@@H]1CCN(C2CCN(C(=O)c3c(C)cccc3C)CC2)C1` [Example 4], the half-inhibitory concentration (IC50) under setting [2] stood at 0.23 nM. The same measure, in the same setting: the figure for `Cc1cccc(C)c1C(=O)N1CCC(N2CC[C@@H](N(Cc3ccccc3)C(=O)C3CCC3)C2)CC1` [Example 5] is 0.27 nM; for `Cc1cccc(C)c1C(=O)N1CCC(N2CC[C@@H](N(Cc3ccccc3)C(=O)CC(F)(F)F)C2)CC1` [Example 6] it is 0.34 nM. Take `Cc1cccc(C)c1C(=O)N1CCC(N2CC[C@@H](N(Cc3ccccc3)C(=O)C(C)C)C2)CC1` [Example 8]: under setting [2], the half-inhibitory concentration (IC50) came to 0.63 nM.

With `Cc1cccc(C)c1C(=O)N1CCC(N2CC[C@@H](N(Cc3cccc(F)c3)C(=O)C3CC3)C2)CC1` [Example 9], under setting [2], the 50% inhibitory concentration (IC50) amounted to 0.8 nM.

For `Cc1cccc(C)c1C(=O)N1CCC(N2CC[C@@H](N(Cc3ccccc3)C(=O)C3CC3)C2)CC1` [Example 10], the IC50 under setting [2] was 1.99 nM. Still for that read-out and setting: for `CC(=O)N(Cc1ccccc1)[C@@H]1CCN(C2CCN(C(=O)c3c(C)cccc3C)CC2)C1` [Example 11] the value was 3.05 nM; for `Cc1cccc(C)c1C(=O)N1CCC(N2CC[C@@H](N(Cc3ccccc3)C(=O)c3ccccc3)C2)CC1` [Example 12], 4.06 nM; for `COCCC(=O)N(Cc1ccccc1)[C@@H]1CCN(C2CCN(C(=O)c3c(C)cccc3C)CC2)C1` [Example 13], 4.83 nM. Still for that read-out and setting: the figure for `CC(=O)N(Cc1ccccc1F)[C@@H]1CCN(C2CCN(C(=O)c3c(C)cccc3C)CC2)C1` [Example 14] is 13 nM; for `Cc1cccc(C)c1C(=O)N1CCC(N2CC[C@@H](N(Cc3ccc(F)cc3)C(=O)C3CC3)C2)CC1` [Example 15] it is 34.1 nM; for `Cc1cccc(C)c1C(=O)N1CCC(N2CC[C@@H](N(Cc3ccccn3)C(=O)C3CC3)C2)CC1` [Example 16] it is 237 nM. The same measure, in the same setting: the figure for `Cc1ccccc1C(=O)N1CCC(N2CC[C@@H](N(Cc3ccccc3)C(=O)C3CC3)C2)CC1` [Example 17] is 40.8 nM; for `Cc1ccc(C(=O)N2CCC(N3CC[C@@H](N(Cc4ccccc4)C(=O)C4CC4)C3)CC2)c(C)c1` [Example 20] it is 221 nM. Take `Cc1ccnc(C)c1C(=O)N1CCC(N2CC[C@@H](N(Cc3ccccc3)C(=O)C3CC3)C2)CC1` [Example 21]: the concentration for half-maximal inhibition (IC50) under setting [2] amounted to 0.82 nM. Same read-out and setting: the figure for `Cc1ccnc(C)c1C(=O)N1CCC(N2CC[C@@H](N(Cc3ccccc3)C(=O)C3CC(F)(F)C3)C2)CC1` [Example 22] is 1.21 nM; for `COCC(=O)N(Cc1cc(F)ccc1F)[C@@H]1CCN(C2CCN(C(=O)c3c(C)ccnc3C)CC2)C1` [Example 23] it is 1.42 nM. The same measure, in the same setting: the figure for `COCC(=O)N(Cc1ccccc1F)[C@@H]1CCN(C2CCN(C(=O)c3c(C)ccnc3C)CC2)C1` [Example 24] is 119 nM. On the same count and under the same terms, the figure for `COCC(=O)N(Cc1cccc(F)c1)[C@@H]1CCN(C2CCN(C(=O)c3c(C)ccnc3C)CC2)C1` [Example 25] is 5.04 nM; for `COCC(=O)N(Cc1cccc(F)c1F)[C@@H]1CCN(C2CCN(C(=O)c3c(C)ccnc3C)CC2)C1` [Example 26] it is 6.51 nM.

Take `Cc1ccnc(C)c1C(=O)N1CCC(N2CC[C@@H](N(Cc3ccccc3F)C(=O)C(C)C)C2)CC1` [Example 27]: the 50% inhibitory concentration (IC50) under setting [2] was determined as 8.8 nM. With `Cc1ccnc(C)c1C(=O)N1CCC(N2CC[C@@H](N(Cc3ccccc3F)C(=O)C3CC(F)(F)C3)C2)CC1` [Example 28], the half-maximal inhibitory concentration (IC50) under setting [2] was found to be 12.4 nM. Still for that read-out and setting: the figure for `CC(=O)N(Cc1ccccc1)[C@@H]1CCN(C2CCN(C(=O)c3c(C)ccnc3C)CC2)C1` [Example 29] is 14 nM; for `Cc1ccnc(C)c1C(=O)N1CCC(N2CC[C@@H](N(Cc3ccccc3)C(=O)C(C)C)C2)CC1` [Example 30] it is 18.9 nM; for `Cc1ccnc(C)c1C(=O)N1CCC(N2CC[C@@H](N(Cc3cccc(F)c3)C(=O)C3CC(F)(F)C3)C2)CC1` [Example 32] it is 34.7 nM. The same measure, in the same setting: the figure for `Cc1ccnc(C)c1C(=O)N1CCC(N2CC[C@@H](N(Cc3cccc(F)c3)C(=O)C(C)C)C2)CC1` [Example 33] is 42.2 nM.

Regarding `Cc1ncnc(C)c1C(=O)N1CCC(N2CC[C@@H](N(Cc3ccccc3)C(=O)C3CC(F)(F)C3)C2)CC1` [Example 34], under setting [2], the concentration for half-maximal inhibition (IC50) came out at 8.51 nM.

`Cc1ncnc(C)c1C(=O)N1CCC(N2CC[C@@H](N(Cc3ccccc3)C(=O)C3CC3)C2)CC1` [Example 35]: the half-inhibitory concentration (IC50) under setting [2] amounted to 9.9 nM. The same measure, in the same setting: the figure for `Cc1ncnc(C)c1C(=O)N1CCC(N2CC[C@@H](N(Cc3ccccc3)C(=O)OC(C)C)C2)CC1` [Example 36] is 52 nM. Same read-out and setting: the figure for `Cc1ncnc(C)c1C(=O)N1CCC(N2CC[C@@H](N(Cc3ccccc3F)C(=O)C3CC(F)(F)C3)C2)CC1` [Example 37] is 62.6 nM. On the same count and under the same terms, for `CCOC(=O)N(Cc1ccccc1)[C@@H]1CCN(C2CCN(C(=O)c3c(C)ncnc3C)CC2)C1` [Example 38] the value was 135 nM; for `Cc1ncnc(C)c1C(=O)N1CCC(N2CC[C@@H](N(Cc3cccc(F)c3)C(=O)C3CC(F)(F)C3)C2)CC1` [Example 39], 227 nM. On to `CCOc1ccccc1C(=O)N1CCC(N2CC[C@@H](N(Cc3ccccc3)C(=O)C3CCC3)C2)CC1` [Example 40], for which the IC50 under setting [2] came out at 120 nM.

For `Cc1onc(-c2ccccc2)c1C(=O)N1CCC(N2CC[C@@H](N(Cc3ccccc3)C(=O)C3CC3)C2)CC1` [Example 41], the IC50 under setting [2] was 0.41 nM.

As to `Cc1onc(C(C)C)c1C(=O)N1CCC(N2CC[C@@H](N(Cc3ccccc3)C(=O)C3CC3)C2)CC1` [Example 42], under setting [2], the IC50 was found to be 66.3 nM.

Take `CCc1cnn(C)c1C(=O)N1CCC(N2CC[C@@H](N(Cc3ccccc3)C(=O)C3CC3)C2)CC1` [Example 43]: the IC50 under setting [2] stood at 59.8 nM. In the case of `COCC(=O)N(Cc1ccccc1F)[C@@H]1CCN(C2CCN(C(=O)c3c(Cl)cccc3Cl)CC2)C1` [Example 44], under setting [2], the IC50 was 1.84 nM. The same measure, in the same setting: the figure for `Cc1cccc(C(=O)N2CCC(N3CC[C@@H](N(Cc4ccccc4)C(=O)CC4CC4)C3)CC2)c1Cl` [Example 46] is 107 nM. Same read-out and setting: the figure for `O=C(c1c(F)cccc1Cl)N1CCC(N2CC[C@@H](N(Cc3ccccc3)C(=O)C3CC3)C2)CC1` [Example 49] is 28.5 nM; for `COCC(=O)N(Cc1ccccc1F)[C@@H]1CCN(C2CCN(C(=O)c3c(F)cccc3Cl)CC2)C1` [Example 50] it is 77.7 nM. The same measure, in the same setting: for `O=C(c1c(F)cccc1Cl)N1CCC(N2CC[C@@H](N(Cc3ccccc3)C(=O)CC3CC3)C2)CC1` [Example 51] the value was 100 nM. Turning to `COc1cc(Cl)ccc1C(=O)N1CCC(N2CC[C@@H](N(Cc3ccccc3)C(=O)C3CC3)C2)CC1` [Example 53], the IC50 under setting [2] was determined as 104 nM. Still for that read-out and setting: the figure for `Cc1cc[n+]([O-])c(C)c1C(=O)N1CCC(N2CC[C@@H](N(Cc3ccccc3)C(=O)C3CC3)C2)CC1` [Example 54] is 34.3 nM. Same read-out and setting: the figure for `COCC(=O)N(Cc1ccccc1)[C@@H]1CCN(C2CCN(C(=O)c3ccccc3C(F)(F)F)CC2)C1` [Example 55] is 48.1 nM.

In the case of `O=C(c1ccccc1)N1CCC(N2CC[C@@H](N(Cc3ccccc3)C(=O)C3CC3)C2)CC1` [Example 56], the IC50 under setting [3] was determined as 1900 nM.

Consider `COc1ccc(C(=O)N2CCC(N3CC[C@@H](N(Cc4ccccc4)C(=O)CC4CC4)C3)CC2)cc1C` [Example 57], for which the IC50 under setting [3] was determined as 6200 nM. In the case of `Cc1cccc(C)c1C(=O)N1CCC(N2CC[C@@H](N(Cc3ccccc3)S(C)(=O)=O)C2)CC1` [Example 58, N-benzyl-N-{(3R)-1-[1-(2,6-dimethylbenzoyl)piperidin-4-yl]pyrrolidin-3-yl}methanesulfonamide], the IC50 under setting [1] was 92.5 nM.

As to `CCCNC(=O)N(Cc1ccccc1F)[C@@H]1CCN(C2CCN(C(=O)c3c(C)cccc3C)CC2)C1` [Example 59, N-[(3R)-1-[1-(2,6-dimethylbenzoyl)piperidin-4-yl]pyrrolidin-3-yl]-N-(2-fluorobenzyl)-N′-propylurea], the midpoint of inhibition under setting [1], the IC50, lay at 0.02 nM. Still for that read-out and setting: the figure for `Cc1ccnc(C)c1C(=O)N1CCC(N2CC[C@@H](N(Cc3ccccc3)C(=O)C3CC3)C2)[C@H](C)C1` (stereo partly drawn) [Example 60, N-benzyl-N-((3R)-1-{1-[(2,4-dimethylpyridin-3-yl)carbonyl]-3-methylpiperidin-4-yl}pyrrolidin-3-yl)cyclopropanecarboxamide] is 4.46 nM; for `Cc1cccc(C)c1C(=O)N1CCC(C)(N2CC[C@@H](N(Cc3ccccc3)C(=O)C3CC3)C2)CC1` [Example 61, N-benzyl-N-{(3R)-1-[1-(2,6-dimethylbenzoyl)-4-methylpiperidin-4-yl]pyrrolidin-3-yl}cyclopropanecarboxamide] it is 0.23 nM.
